# Laboratory results published in ChEMBL document CHEMBL1201862, “PubChem BioAssay data set” (2004).
#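 Grown in 96-well plates, cells were treated for 48 hours with each compound at five concentrations. Insufficient inhibition: endpoint recorded as highest concentration tested. Abbreviation: GI50, concentration required for 50% inhibition of growth.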 Activity calls are given as the source filed them. Cut-off read from the data, not from the text of the source: active = GI50 up to about 1.1 µM and inactive = higher. Peptide text beside a SMILES is read from it. * marks the point of attachment. Cbz = O=C(OCc1ccccc1)*
# Columns and labels:
# Assay in all cases: NCI tumour cell line growth inhibition, 48 h
# NCI-H460 = test system: NCI-H460
# HL-60 = test system: HL-60
# HOP-62 = test system: HOP-62
# BT-549 = test system: BT-549
# MCF7 = test system: MCF7
# SK-MEL-2 = test system: SK-MEL-2
# TK-10 = test system: TK-10
# SF-268 = test system: SF-268
# NCI-H522 = test system: NCI-H522
# NCI-H23 = test system: NCI-H23
# SW-620 = test system: SW-620
# SK-MEL-5 = test system: SK-MEL-5
# HCT-116 = test system: HCT-116
# HOP-92 = test system: HOP-92
# DU-145 = test system: DU-145
# OVCAR-4 = test system: OVCAR-4
# RPMI-8226 = test system: RPMI-8226
# SF-295 = test system: SF-295
# LOX IMVI = test system: LOX IMVI
# SR = test system: SR
Structure (SMILES),GI50 (NCI-H460),GI50 (HL-60),GI50 (HOP-62),GI50 (BT-549),GI50 (MCF7),GI50 (SK-MEL-2),GI50 (TK-10),GI50 (SF-268),GI50 (NCI-H522),GI50 (NCI-H23),GI50 (SW-620),GI50 (SK-MEL-5),GI50 (HCT-116),GI50 (HOP-92),GI50 (DU-145),GI50 (OVCAR-4),GI50 (RPMI-8226),GI50 (SF-295),GI50 (LOX IMVI),GI50 (SR)
Nc1nc(Cl)c(Cl)c(NCC2(O)CCC2)n1,> 100 µM (inactive),44 µM (inactive),92.3 µM (inactive),44.6 µM (inactive),74.1 µM (inactive),> 100 µM (inactive),> 100 µM (inactive),> 100 µM (inactive),18.3 µM (inactive),38.9 µM (inactive),> 100 µM (inactive),18.8 µM (inactive),57.3 µM (inactive),29.1 µM (inactive),> 100 µM (inactive),19 µM (inactive),42 µM (inactive),43.9 µM (inactive),28.5 µM (inactive),47.5 µM (inactive)
Cc1cc(Cl)ccc1C(=O)c1ccc2ccccc2c1C(=O)O,> 100 µM (inactive),> 100 µM (inactive),–,> 100 µM (inactive),41.5 µM (inactive),> 100 µM (inactive),> 100 µM (inactive),> 100 µM (inactive),> 100 µM (inactive),> 100 µM (inactive),> 100 µM (inactive),> 100 µM (inactive),> 100 µM (inactive),> 100 µM (inactive),> 100 µM (inactive),> 100 µM (inactive),> 100 µM (inactive),98.9 µM (inactive),–,> 100 µM (inactive)
CC(=O)Oc1ccc2[nH]c3c(C)c4cccc-4ccc3c2c1,2.94 µM (inactive),2.72 µM (inactive),2.29 µM (inactive),2.34 µM (inactive),2.65 µM (inactive),1.96 µM (inactive),1.87 µM (inactive),2.02 µM (inactive),1.63 µM (inactive),1.99 µM (inactive),3.7 µM (inactive),1.83 µM (inactive),2.07 µM (inactive),2.12 µM (inactive),3.27 µM (inactive),1.84 µM (inactive),3.03 µM (inactive),2.02 µM (inactive),2.18 µM (inactive),4.59 µM (inactive)
CO/C(=N\N=C\c1ccc(Cl)cc1Cl)c1ccncc1,> 10 µM (inactive),> 10 µM (inactive),> 10 µM (inactive),> 10 µM (inactive),> 10 µM (inactive),> 10 µM (inactive),> 10 µM (inactive),> 10 µM (inactive),> 10 µM (inactive),> 10 µM (inactive),> 10 µM (inactive),–,> 10 µM (inactive),> 10 µM (inactive),> 10 µM (inactive),> 10 µM (inactive),6.24 µM (inactive),> 10 µM (inactive),> 10 µM (inactive),> 10 µM (inactive)
NCC(=O)C(O)C(O)C(O)CO (stereo not given),> 100 µM (inactive),> 100 µM (inactive),> 100 µM (inactive),> 100 µM (inactive),> 100 µM (inactive),> 100 µM (inactive),> 100 µM (inactive),> 100 µM (inactive),> 100 µM (inactive),> 100 µM (inactive),> 100 µM (inactive),> 100 µM (inactive),> 100 µM (inactive),> 100 µM (inactive),> 100 µM (inactive),> 100 µM (inactive),> 100 µM (inactive),> 100 µM (inactive),> 100 µM (inactive),> 100 µM (inactive)
CCOC(=O)C(C)NC(=O)C(C)NC(=O)C(C)NC(=O)C(C)NC(=O)C(C)NC(=O)C(C)NC(=O)C(C)NC(=O)OCc1ccccc1 (stereo not given) (Cbz-AAAAAAA-OEt; configuration not given here),> 100 µM (inactive),> 100 µM (inactive),> 100 µM (inactive),> 100 µM (inactive),> 100 µM (inactive),–,> 100 µM (inactive),> 100 µM (inactive),> 100 µM (inactive),> 100 µM (inactive),> 100 µM (inactive),> 100 µM (inactive),> 100 µM (inactive),> 100 µM (inactive),> 100 µM (inactive),> 100 µM (inactive),> 100 µM (inactive),> 100 µM (inactive),> 100 µM (inactive),> 100 µM (inactive)
Nc1ccc(/N=N\c2ccc(-c3ccc(O)cc3)cc2)c2ccc(S(=O)(=O)O)cc12,> 100 µM (inactive),> 100 µM (inactive),> 100 µM (inactive),> 100 µM (inactive),> 100 µM (inactive),> 100 µM (inactive),> 100 µM (inactive),> 100 µM (inactive),> 100 µM (inactive),> 100 µM (inactive),> 100 µM (inactive),> 100 µM (inactive),> 100 µM (inactive),> 100 µM (inactive),> 100 µM (inactive),> 100 µM (inactive),> 100 µM (inactive),> 100 µM (inactive),> 100 µM (inactive),> 100 µM (inactive)
C1CN(c2nnc(N3CCC3)nn2)C1,67.9 µM (inactive),> 100 µM (inactive),> 85.7 µM (inactive),> 65.9 µM (inactive),> 50.2 µM (inactive),44.1 µM (inactive),> 100 µM (inactive),90.6 µM (inactive),44.4 µM (inactive),30.6 µM (inactive),32.3 µM (inactive),25.2 µM (inactive),84.5 µM (inactive),> 100 µM (inactive),> 100 µM (inactive),40.9 µM (inactive),> 100 µM (inactive),37.3 µM (inactive),17.8 µM (inactive),> 100 µM (inactive)
COC(=O)C(Cc1c[nH]c2ccccc12)NC1=Nc2ccncc2S(=O)(=O)N1c1cccc(OC(C)C)c1 (stereo not given),27.7 µM (inactive),22.4 µM (inactive),56.2 µM (inactive),27.8 µM (inactive),24.7 µM (inactive),39.7 µM (inactive),> 100 µM (inactive),41.9 µM (inactive),21.4 µM (inactive),20.1 µM (inactive),92.5 µM (inactive),25.5 µM (inactive),35.4 µM (inactive),3.94 µM (inactive),32.8 µM (inactive),37.2 µM (inactive),15.5 µM (inactive),42 µM (inactive),26.4 µM (inactive),21.8 µM (inactive)
COc1cc2cc(C(=O)N3CC(CCl)c4ccc([N+](C)(C)Cc5ccc([N+](=O)[O-])cc5)cc43)[nH]c2c(OC)c1OC (stereo not given),1.52 µM (inactive),2.04 µM (inactive),4.92 µM (inactive),5.74 µM (inactive),2.14 µM (inactive),2.05 µM (inactive),1.86 µM (inactive),3.39 µM (inactive),0.552 µM (active),1.77 µM (inactive),1.5 µM (inactive),1.71 µM (inactive),1.83 µM (inactive),2.52 µM (inactive),3.05 µM (inactive),3.09 µM (inactive),2.01 µM (inactive),2.58 µM (inactive),–,0.363 µM (active)
O=C1C2SC34c5c2c2ccccc2n5CCC3CCCN14 (stereo not given),–,> 100 µM (inactive),31.8 µM (inactive),> 100 µM (inactive),> 100 µM (inactive),74.6 µM (inactive),25.9 µM (inactive),39.4 µM (inactive),56.8 µM (inactive),> 100 µM (inactive),> 100 µM (inactive),> 100 µM (inactive),> 100 µM (inactive),34.9 µM (inactive),> 100 µM (inactive),37.5 µM (inactive),> 100 µM (inactive),55.2 µM (inactive),> 100 µM (inactive),> 100 µM (inactive)
Nc1nc(-c2ccccc2)c(CC(=O)O)s1,> 100 µM (inactive),20 µM (inactive),> 100 µM (inactive),> 100 µM (inactive),> 100 µM (inactive),> 100 µM (inactive),> 100 µM (inactive),> 100 µM (inactive),> 100 µM (inactive),–,> 100 µM (inactive),> 100 µM (inactive),> 100 µM (inactive),> 100 µM (inactive),> 100 µM (inactive),> 100 µM (inactive),> 100 µM (inactive),> 100 µM (inactive),> 100 µM (inactive),> 100 µM (inactive)
COC(=O)[C@@H]1[C@H](OC(C)=O)CCC2[C@@]3(C[C@@H](c4ccoc4)O[C@@H]3OC)[C@H](C)CC[C@]21C(=O)OC (stereo not given in full),> 25 µM (inactive),19 µM (inactive),–,> 25 µM (inactive),> 25 µM (inactive),> 25 µM (inactive),> 25 µM (inactive),> 25 µM (inactive),> 25 µM (inactive),> 25 µM (inactive),> 25 µM (inactive),> 25 µM (inactive),> 25 µM (inactive),> 25 µM (inactive),> 25 µM (inactive),> 25 µM (inactive),> 25 µM (inactive),> 25 µM (inactive),> 25 µM (inactive),> 25 µM (inactive)
O=[N+]([O-])C(=C(Nc1ccccc1)Nc1ccccc1)/C(Cl)=C(\Cl)Br,21.3 µM (inactive),1.76 µM (inactive),22 µM (inactive),21.7 µM (inactive),12.5 µM (inactive),18 µM (inactive),–,16.8 µM (inactive),2.51 µM (inactive),12.1 µM (inactive),6.82 µM (inactive),–,6.05 µM (inactive),17.7 µM (inactive),16.5 µM (inactive),11.9 µM (inactive),3.61 µM (inactive),14.8 µM (inactive),3.27 µM (inactive),5.01 µM (inactive)
